{"source": "patent US6994992B1", "about": "“Androgen-induced suppressor of cell proliferation and uses thereof” (Trustees of Tufts College, priority 1999, dated 2006)", "key": {"STFX1 cells": {"test_system": "STFX1 cells", "test": "BrdU incorporation, percent BrdU-labeled nuclei of STFX1 cells containing vector only or AS3 antisense constructs", "type": "cell-based", "conditions": "for percent BrdU-labeled nuclei: 10 nM R1881 for 24 h, BrdU labeling", "from_the_text": "In particular, the AS3 antisense gene was cloned into the Clontech pRevTRE™ retroviral vector under the control of a tetracycline sensitive promoter. The promoter has seven repeats of the bacterial tetO operator sequence upstream of the minimal CMV promoter which can be bound by the tetracycline transactivator (tTA). The tTA is a fusion protein between the bacterial tetracycline repressor and the […] herpes virus transactivator. The tetracycline transactivator is sensitive for tetracycline such that, in the presence of tetracycline, the transactivator cannot bind the tetracycline promoter so the transgene is “off” and conversely, in the absence of tetracycline, the gene is “on” (i.e., the Tet-Off™ system; see, e.g., Clontech pRevTRE™ manual for further details).\nThe supernatants containing the highest amounts of virions were then used to infect the STFX1 cell line, a derivative of the MCF7-AR1 that has a tetracycline transactivator gene stably integrated. During the cloning and selection procedures, cells were maintained in 1 μg/mL of tetracycline to suppress the expression of the inducible transgenes.\nIn order to characterize the cell lines expressing AS3 antisense and the “control” cell lines having vector without insert, cells were incubated in the presence (i.e., the transgene is off) and absence of tetracycline (i.e., the transgene is on) and, after 36 hours, assayed for transcript expression using RT-PCR under standard conditions,\nTo determine the affect of androgen induced AS3 suppression of cellular growth, cells lines showing high levels of inducible AS3 antisense expression were chosen for further study. Cells were seeded onto coverslips in standard growth medium and allowed to grow for 5 days in the presence of 10 μg/ml tetracycline (hereafter “tet”). Then, vehicle or 10 nM of the androgen R1881 was added. Finally, 24 hours later, the cells were treated with 10 μg/ml of bromodeoxyuridine (BrdU) for several hours to measure the percent of cells actively proliferating as a function of BrdU incorporation during DNA replication. The cells were then fixed, Hoechst stained, and the percent number of BrdU-labeled cells was determined using immunocytochemistry (using standard BrdU labeling regents and protocols from Boheringer)."}, "LNCaP-FGC cells": {"test_system": "LNCaP-FGC cells", "test": "Proliferation of LNCaP-FGC cells in CDHuS with androgen", "type": "cell-based, human", "from_the_text": "Androgens regulate prostate cell numbers and cell proliferation by three major mechanisms: a) inhibition of cell death (apoptosis), b) induction of cell proliferation (Step-1), and c) inhibition of cell proliferation (proliferative shutoff, Step-2) (Isaacs (1985) Prostate 5:545–557; Bruchovsky et al. (1975) Vit. &Horm. 33:61–102; Sonnenschein et al., (1989) Cancer Res. 49:3474–3481). Androgens affect epithelial and stromal cell types which, in turn, interact in the prostate (Hayward et al., (1997) Brit. J. Urol. Suppl. 2: 18–26). […] Proliferation is inhibited in these cells by sex steroid-stripped (charcoal-dextran treated) human serum (CDHuS) (Sonnenschein et al., (1989) Cancer Res. 49:3474–3481). Low androgen concentrations cancel this inhibition (Step-1) and at higher levels, androgens induce an irreversible proliferative shutoff (Step-2) (Sonnenschein et al., (1989) Cancer Res. 49:3474–3481; Soto et al., (1995) Oncology Res. 7: 545–558). During the shutoff period, these cells remain in the G0/G1 phase of the cell cycle. Prostate specific antigen (PSA) induction, however, is still dependent on androgens in these postmitotic cells (Soto et al., (1995) Oncology Res. 7: 545–558). […]"}, "AS3": {"test_system": "AS3", "test": "Expression analysis of the AS3 transcript in LNCaP-FGC cells", "type": "cell-based, human", "description": "Briefly, androgen-specific, low-abundance regulatory mRNA sequences expressed during the proliferative shutoff, were selected using the Wang-Brown approach (Wang et al., (1991) Proc. Natl. Acad. Sci. USA 88: 11505–11509). […] LNCaP-FGC cells were treated with 30 nM R1881 to generate proliferative shutoff. R1881 (methyltrienolone) is a synthetic, non-metabolized androgen (Roussell-UCLAF, Romainville, France). Exposure to androgen for 24 hours was required to commit LNCaP-FGC cells to an irreversible proliferative shutoff (Geck et al., (1997) J. Steroid Biochem. Mol. Biol. 63: 211–218). […] LNCaP-FGC cells reversibly arrested by CDHuS were considered as the shutoff-negative control; they were harvested after three days of CDHuS treatment. Total RNA was prepared by the acidic guanidinium-thiocyanate method and polyA RNA was purified by using the FastTrack™ kit (Invitrogen, San Diego, Calif.) (Chomczinsky et al., (1987) Anal. Biochem. 162: 156–159).\nFurthermore, expression of the AS3 transcript positively correlated with proliferation arrest as this gene was expressed only in shutoff-positive cell lines and variants. […] An additional observation that indicates the AS3 gene codes for an inhibitor of the proliferation of prostate cells is the increase of AS3 mRNA levels in the rat prostate when proliferation was arrested by prolonged androgen administration. […]"}, "[1]": {"conditions": "CDHuS supplemented with 30 pM R1881"}}, "data": [{"compound": "C[C@]1(O)CC[C@H]2[C@@H]3CCC4=CC(=O)CCC4=C3C=C[C@@]21C", "note": "[R1881, methyltrienolone]", "values": [{"measurement": "proliferative shutoff", "setting": "STFX1 cells; AS3 levels reduced by antisense expression in the absence of tetracycline (sample 8 vs sample 6), 10 nM R1881", "result": "no longer induces a proliferative shutoff"}, {"measurement": "percent BrdU-labeled nuclei", "setting": "STFX1 cells; STFX1 cells with AS3 antisense construct, +tet (antisense uninduced)", "result": "9.7 +/−0.6%"}, {"measurement": "percent BrdU-labeled nuclei", "setting": "STFX1 cells; STFX1 cells with AS3 antisense construct, −tet (antisense expressed)", "result": "29.1 +/−1.6%"}, {"measurement": "percent BrdU-labeled nuclei", "setting": "STFX1 cells; STFX1 cells with empty vector, +tet (10 μg/ml)", "result": "9.4 +/−1.7%"}, {"measurement": "percent BrdU-labeled nuclei", "setting": "STFX1 cells; STFX1 cells with empty vector, −tet (vector induced)", "result": "10.7 +/−0.9%"}, {"measurement": "number of proliferating cells in S phase", "setting": "STFX1 cells; cellular levels of AS3 unaffected (samples 2, 4, 6) compared to sample 1 without androgen, 10 nM R1881", "result": "significant decrease"}, {"measurement": "proliferation of LNCaP-FGC cells", "setting": "LNCaP-FGC cells; 0.3–30 nM of R1881", "result": "inhibited from proliferating"}, {"measurement": "proliferation of LNCaP-FGC cells", "setting": "LNCaP-FGC cells; [1]", "result": "proliferated maximally"}, {"measurement": "AS3 expression", "setting": "AS3; 0.3–30 nM of R1881", "result": "strongly induced"}, {"measurement": "AS3 expression", "setting": "AS3; [1]", "result": "not expressed"}]}]}
